Assay results from the SangsterLogP compilation.

Assay: method code SF, from DOI: 10.1007/978-3-0348-5795-6_10, PMID: 954948

SMILES | logP
O=S(c1ccccc1)c1ccc(N=C=S)cc1 (centres undefined) | 4.4
S=C=NCCc1ccccc1 | 3.47
S=C=NC(c1ccccc1)(c1ccccc1)c1ccccc1 | 7.02
S=C=Nc1ccc(/N=N/c2ccccc2)cc1 | 5.55
O=C(Oc1ccc(N=C=S)cc1)c1ccccc1 | 4.9
S=C=NCc1ccccc1 | 3.16
S=C=NC(c1ccccc1)c1ccccc1 | 5.09
S=C=Nc1ccc(-c2ccccc2)cc1 | 4.66
S=C=Nc1ccc(Cc2ccccc2)cc1 | 4.4
S=C=Nc1ccc2ccccc2c1 | 4.34
CCN=C=S | 1.47
S=C=Nc1ccc(Nc2ccccc2)cc1 | 4.94
Oc1ccc(N=C=S)cc1 | 2.74
CC(N=C=S)c1ccccc1 (centres undefined) | 3.46
S=C=Nc1cccc2ccccc12 | 4.34
O=C(c1ccccc1)c1ccc(N=C=S)cc1 | 4.88
S=C=Nc1ccc2cc3ccccc3cc2c1 | 5.7
S=C=Nc1ccc(Oc2ccccc2)cc1 | 4.75
S=C=NCc1cccc2ccccc12 | 4.42
